The values below come from patent US11857552B2, “4-[[(7-aminopyrazolo[1,5-a]pyrimidin-5-yl)amino]methyl]piperidin-3-ol compounds as CDK inhibitors” (Carrick Therapeutics Limited, priority 2017, dated 2024).

One data set deals with MDR1 (Homo sapiens (Human), UniProt P08183). Briefly: MDCK-MDR1 Efflux Ratio. Format: in vitro ADME. The following applies: dog, MDCK-MDR1, pH 7.4, HBSS pH 7.4, 37° C. How it is done: Method 5: MDCK-MDR1 Efflux Ratio
Materials and solutions: • MDCK/MDR1 Ready™ cell plate (Readycell). • High Glucose Cell Culture Medium (Sigma, D5671) supplemented with: 10% FBS, 1% Glutamine 200 mM, 1% Penicillin (10,000 U/mL)—Streptomycin (10 mg/mL). • HBSS Buffer (Gibco, 14065-049). • Internal standard: 0.5 μM Bupropion in acetonitrile/0.1% formic acid (aq) (1:1 v/v).
HBSS assay buffer was prepared at pH 7.4 and warmed to 37° C. The cell culture media was removed from the Readycell plate. The Basal cells were washed with HBSS buffer (3×225 μL) and the Apical cells were washed with HBSS buffer (3×75 μL). The cells were warmed to 37° C. in a humidified CO2 (5%) atmosphere and shaken at 250 rpm for 30 min. Compound and standard solutions were prepared by diluting each compound (10 μL, 1 mM in DMSO) with HBSS (990 μL). The buffer was carefully removed from the Basal cell plate, followed by the Apical cell plate. HBSS buffer (225 μL) and compound solution (250 μL) were added to the Basal cell plate. An aliquot (25 μL) of the solutions were combined with internal standard (75 μL) and refrigerated for use as the t=0 h sample. HBSS buffer (75 μL) and compound solution (100 μL) were added to the Apical cell plate. An aliquot (25 μL) was taken and processed in the same manner as for the Basal cell plate. […]

The target of another data set is human CDK2/cycE1 (Homo sapiens (Human), UniProt P24941). The experiment in a line: CDK2 IC50 (ADP-Glo kinase assay). The note with it: ATP 20 μM, histone H1 substrate. Format: biochemical. The procedure: (§1) A reaction mixture (6 μL) containing the following components was prepared: 60 mM HEPES (60 mM, pH 7.5), sodium orthovanadate (3 μM), PEG-20000 (50 μg/mL), DTT (1.2 mM), MgCl2 (3 mM), purified human CDK2/cycE1 (4 μg/mL), histone H1 (50 μg/mL), ATP (20 μM) and test compound at the appropriate concentration such that the final concentration of DMSO was 1% w/w. The reaction mixture was incubated at 30° C. for 75 min and then stopped by the addition of ADP-Glo Reagent (6 μL). The reaction was incubated at 25° C. for 1 h to deplete the remaining ATP. Subsequently, Kinase Detection Reagent (12 μL) was added and the reaction was allowed to proceed for 1 h at 25° C. before analysis by luminescence measurement using an Envision Plate Reader (Perkin Elmer).

The next data set has as its target human CDK9/cycK (Homo sapiens (Human), UniProt P50750). The experiment in a line: CDK9 IC50 (ADP-Glo kinase assay). Format: biochemical. The following applies: ATP 8 μM, CDKtide substrate. How it is done:
In addition to those mentioned above for Method 1: • Human CDK9/cycK (Promega, V4104). • CDKtide (SignalChem, C06-58).
as §1, with “CDK9/cycK (2.5” for “CDK2/cycE1 (4”, “CDKtide (35 μM),” for “histone H1 (50 μg/mL),”, “(8” for “(20”, “60” for “75”

Another data set concerns the target human CDK7/cycH/MAT1 (Homo sapiens (Human), UniProt P50613). The experiment in a line: CDK7 IC50 (ADP-Glo kinase assay). The class given is biochemical. The note with it: for IC50: ATP 8 μM, CDKtide substrate; for Ratio CDK2/CDK7: CDK2 IC50 / CDK7 IC50 selectivity; for CDK2/CDK7 Selectivity: Improvement vs. REF-001: ratio of CDK2/CDK7 ratios; for CDK7 Potency: Improvement vs. REF-001: ratio of CDK7 IC50 of REF-001 to compound. The procedure: A reaction mixture (6 μL) containing the following components was prepared: 60 mM HEPES (60 mM, pH 7.5), sodium orthovanadate (3 μM), PEG-20000 (50 μg/mL), DTT (1.2 mM), MgCl2 (3 mM), MnCl2 (3 mM), purified human CDK7/cycH/MAT1 (4 μg/mL), CDKtide (10 μM), ATP (8 μM) and test compound at the appropriate concentration such that the final concentration of DMSO was 1% w/w. The reaction mixture was incubated at 30° C. for 30 min and then stopped by the addition of ADP-Glo Reagent (6 μL). The reaction was incubated at 25° C. for 1 h to deplete the remaining ATP. Subsequently, Kinase Detection Reagent (12 μL) was added and the reaction was allowed to proceed for 1 h at 25° C. before analysis by luminescence measurement using an Envision Plate Reader (Perkin Elmer).

Data set [1] can be described thus: Human Plasma Protein Binding (PPB), RED device. The class given is in vitro ADME. The note with it: for Free Fraction: Improvement vs. REF-001: human plasma; for Human PPB / fraction unbound at 240 min, 5 µM: human plasma pH 7.4, 37° C., 240 min. How it is done: Method 4: Human Plasma Protein Binding (PPB)
Materials and solutions: • Human Plasma (Sera Labs, […]). • Bupropion hydrochloride (Sigma, B102). • DPBS (Sigma, D8537). • Formic Acid (Sigma, F0507). • RED Device Single Use (Life Technologies, 90006). • Internal standard solution preparation: A solution of bupropion hydrochloride (50 μL, 10 mM in DMSO) was combined with 0.1% formic acid (1 mL) in acetonitrile (1000 mL).
Once frozen plasma was defrosted and adjusted to pH 7.4 using 1 M lactic acid solution and a portion of this mixture (792 μL) combined with each test compound solution (8 μL, 0.5 mM in DMSO). Portions of the resultant spiked plasma (200 μL) were added to sample compartments of the RED device. DBPS (350 μL) was added to each corresponding buffer compartment. An initial sample (50 μL) was taken and then the RED plate was sealed and incubated at 37° C. for 240 min on an orbital shaker (200 rpm) in a humidified CO2 (5%) atmosphere, alongside plasma and DBPS samples. Each sample well was treated with internal standard solution (300 μL). Aliquots (50 μL) were removed from each buffer well and sample well and replaced with incubated plasma (50 μL) or incubated DPBS (50 μL) respectively. The plate was sealed and centrifuged (3500 rpm, 15 min). Aliquots of the supernatant (100 μL) were combined with water (50 μL) for analysis using a Waters TQS Mass Spectrometer.

A further data set deals with BCRP (Homo sapiens (Human), UniProt Q9UNQ0). Briefly: MDCK-BCRP Efflux Ratio. The class given is in vitro ADME. The following applies: dog, pH 7.4, HBSS pH 7.4, 37° C. An excerpt:
Method 6: MDCK-BCRP Efflux Ratio
Essentially the same as Method 5, but using MDCK/BCRP Ready™ cell plates (Readycell) in place of MDCK/MDR1 plates.

Data set [2] relates to MCF-7 breast cancer cell line. The following applies: with 4-hydroxytamoxifen or Faslodex, ERα-positive MCF-7 cells; cited from earlier work.

Molecules are shown by their SMILES.

human CDK9/cycK, sequence (P50750 whole entry): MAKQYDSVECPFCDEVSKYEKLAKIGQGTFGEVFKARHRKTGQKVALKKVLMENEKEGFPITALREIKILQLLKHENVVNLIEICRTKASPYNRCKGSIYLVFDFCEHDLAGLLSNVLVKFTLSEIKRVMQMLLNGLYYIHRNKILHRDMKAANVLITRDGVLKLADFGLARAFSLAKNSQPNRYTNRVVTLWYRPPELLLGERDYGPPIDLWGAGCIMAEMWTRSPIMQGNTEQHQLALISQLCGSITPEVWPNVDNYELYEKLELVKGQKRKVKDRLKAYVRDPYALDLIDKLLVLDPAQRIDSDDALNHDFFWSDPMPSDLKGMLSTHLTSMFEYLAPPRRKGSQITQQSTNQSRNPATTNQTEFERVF
human CDK9/cycK, sequence (O75909 whole entry partner): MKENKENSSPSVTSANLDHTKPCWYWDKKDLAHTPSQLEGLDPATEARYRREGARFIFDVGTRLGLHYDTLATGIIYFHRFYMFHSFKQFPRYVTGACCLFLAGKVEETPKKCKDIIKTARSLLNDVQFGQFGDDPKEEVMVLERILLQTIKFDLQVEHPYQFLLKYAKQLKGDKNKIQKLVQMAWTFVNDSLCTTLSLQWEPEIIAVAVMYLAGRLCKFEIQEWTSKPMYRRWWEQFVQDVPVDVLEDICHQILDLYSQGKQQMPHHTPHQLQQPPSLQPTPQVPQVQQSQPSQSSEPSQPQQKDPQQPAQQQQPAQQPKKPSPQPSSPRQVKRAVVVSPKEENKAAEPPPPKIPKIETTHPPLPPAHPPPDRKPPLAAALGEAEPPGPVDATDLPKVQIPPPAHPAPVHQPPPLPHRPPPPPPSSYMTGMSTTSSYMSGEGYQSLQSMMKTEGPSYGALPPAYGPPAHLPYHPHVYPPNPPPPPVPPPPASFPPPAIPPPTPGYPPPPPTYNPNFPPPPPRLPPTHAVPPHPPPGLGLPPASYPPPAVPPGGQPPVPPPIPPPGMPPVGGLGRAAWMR
human CDK7/cycH/MAT1, sequence (P50613 whole entry): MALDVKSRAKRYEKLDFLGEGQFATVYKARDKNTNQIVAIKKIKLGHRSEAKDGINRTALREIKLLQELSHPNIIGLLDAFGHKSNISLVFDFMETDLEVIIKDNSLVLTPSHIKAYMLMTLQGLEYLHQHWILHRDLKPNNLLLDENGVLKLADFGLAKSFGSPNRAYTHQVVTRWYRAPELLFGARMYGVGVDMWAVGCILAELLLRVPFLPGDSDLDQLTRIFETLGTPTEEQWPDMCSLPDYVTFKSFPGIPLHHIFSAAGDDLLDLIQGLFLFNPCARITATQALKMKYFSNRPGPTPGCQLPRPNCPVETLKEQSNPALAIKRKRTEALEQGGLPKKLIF
human CDK7/cycH/MAT1, sequence (P51946 whole entry partner): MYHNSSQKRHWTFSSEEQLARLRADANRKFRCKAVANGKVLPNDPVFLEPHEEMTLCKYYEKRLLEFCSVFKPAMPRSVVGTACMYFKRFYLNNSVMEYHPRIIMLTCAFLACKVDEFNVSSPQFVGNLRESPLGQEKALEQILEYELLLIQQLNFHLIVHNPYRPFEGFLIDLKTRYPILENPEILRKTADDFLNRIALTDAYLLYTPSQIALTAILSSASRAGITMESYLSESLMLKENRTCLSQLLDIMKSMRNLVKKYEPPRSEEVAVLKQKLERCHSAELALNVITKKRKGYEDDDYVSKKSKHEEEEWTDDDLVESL
human CDK7/cycH/MAT1, sequence (P51948 whole entry partner): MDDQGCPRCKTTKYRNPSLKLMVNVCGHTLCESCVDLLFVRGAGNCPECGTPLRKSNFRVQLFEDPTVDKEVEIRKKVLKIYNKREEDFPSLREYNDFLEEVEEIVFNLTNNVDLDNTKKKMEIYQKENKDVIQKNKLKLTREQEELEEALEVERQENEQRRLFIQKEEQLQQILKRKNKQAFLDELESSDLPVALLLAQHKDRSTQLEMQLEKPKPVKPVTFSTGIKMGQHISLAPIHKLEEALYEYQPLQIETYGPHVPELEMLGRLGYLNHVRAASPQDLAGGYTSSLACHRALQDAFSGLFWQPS
MDR1, sequence (P08183 whole entry): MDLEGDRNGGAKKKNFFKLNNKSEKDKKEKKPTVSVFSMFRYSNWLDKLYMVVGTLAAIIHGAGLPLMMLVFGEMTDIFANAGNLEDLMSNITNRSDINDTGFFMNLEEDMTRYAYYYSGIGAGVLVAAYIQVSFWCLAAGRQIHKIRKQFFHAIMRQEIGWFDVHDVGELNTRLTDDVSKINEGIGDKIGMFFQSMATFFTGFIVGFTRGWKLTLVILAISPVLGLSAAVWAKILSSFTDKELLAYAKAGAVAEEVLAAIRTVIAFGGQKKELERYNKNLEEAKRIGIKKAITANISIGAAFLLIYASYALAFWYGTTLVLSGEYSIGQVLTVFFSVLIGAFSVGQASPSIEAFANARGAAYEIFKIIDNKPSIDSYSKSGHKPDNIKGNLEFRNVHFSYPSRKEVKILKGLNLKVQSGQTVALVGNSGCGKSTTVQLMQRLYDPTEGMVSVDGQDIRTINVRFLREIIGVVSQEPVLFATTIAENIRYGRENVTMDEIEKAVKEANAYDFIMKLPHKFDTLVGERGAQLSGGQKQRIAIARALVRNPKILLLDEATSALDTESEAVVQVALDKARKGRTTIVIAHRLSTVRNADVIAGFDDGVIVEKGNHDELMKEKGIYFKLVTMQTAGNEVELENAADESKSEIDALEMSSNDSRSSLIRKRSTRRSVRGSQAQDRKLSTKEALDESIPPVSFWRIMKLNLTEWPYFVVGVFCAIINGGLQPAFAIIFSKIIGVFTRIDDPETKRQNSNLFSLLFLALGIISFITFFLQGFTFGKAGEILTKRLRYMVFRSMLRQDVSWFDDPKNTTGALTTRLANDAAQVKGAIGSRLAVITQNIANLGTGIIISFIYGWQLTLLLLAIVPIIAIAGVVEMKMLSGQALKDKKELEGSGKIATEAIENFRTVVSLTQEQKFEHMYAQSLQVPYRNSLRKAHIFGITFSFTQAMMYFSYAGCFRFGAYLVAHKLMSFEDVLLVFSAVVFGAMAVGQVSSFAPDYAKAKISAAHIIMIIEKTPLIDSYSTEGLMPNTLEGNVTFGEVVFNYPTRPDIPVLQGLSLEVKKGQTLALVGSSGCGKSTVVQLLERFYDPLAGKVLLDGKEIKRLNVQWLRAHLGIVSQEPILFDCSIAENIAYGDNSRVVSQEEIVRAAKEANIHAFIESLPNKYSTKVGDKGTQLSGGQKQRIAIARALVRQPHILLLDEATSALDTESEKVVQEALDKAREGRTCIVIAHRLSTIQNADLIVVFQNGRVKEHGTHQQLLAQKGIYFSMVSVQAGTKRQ
BCRP, sequence (Q9UNQ0 whole entry): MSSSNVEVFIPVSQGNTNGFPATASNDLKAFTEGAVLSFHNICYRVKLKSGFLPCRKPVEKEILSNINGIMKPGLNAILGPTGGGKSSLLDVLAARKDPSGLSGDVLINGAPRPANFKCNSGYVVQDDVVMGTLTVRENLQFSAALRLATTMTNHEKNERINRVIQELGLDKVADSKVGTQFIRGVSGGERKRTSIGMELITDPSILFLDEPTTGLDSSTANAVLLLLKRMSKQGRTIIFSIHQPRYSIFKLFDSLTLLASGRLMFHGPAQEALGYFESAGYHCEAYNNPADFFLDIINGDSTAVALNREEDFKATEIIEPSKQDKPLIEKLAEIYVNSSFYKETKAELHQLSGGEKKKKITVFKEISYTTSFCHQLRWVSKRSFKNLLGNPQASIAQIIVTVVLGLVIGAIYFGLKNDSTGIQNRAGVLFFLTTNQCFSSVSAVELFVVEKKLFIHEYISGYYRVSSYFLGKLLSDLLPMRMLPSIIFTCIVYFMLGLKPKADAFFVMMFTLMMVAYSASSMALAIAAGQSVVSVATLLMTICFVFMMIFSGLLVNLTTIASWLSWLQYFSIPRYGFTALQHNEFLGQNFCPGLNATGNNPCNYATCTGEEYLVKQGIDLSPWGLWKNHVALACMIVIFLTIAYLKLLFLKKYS

As usually defined, the efflux ratio is a quotient of directional permeabilities that is used to spot active efflux. By IC50 is commonly meant the midpoint of a concentration-inhibition curve. The low end stands for inhibition by little substance, the high end for a need for much substance. What is called fraction unbound is free concentration divided by total concentration. For `CCc1cnn2c(NCc3ccccc3F)cc(NC[C@H]3CCNC[C@@H]3O)nc12` [APPAMP-001, (3R,4R)-4-(((3-ethyl-7-((2-fluorobenzyl)amino)pyrazolo[1,5-a]pyrimidin-5-yl)amino)methyl)piperidin-3-ol], the efflux ratio at 2 h, 10 µM on MDR1 came to 2. In addition, on human CDK2/cycE1, the half-inhibitory concentration (IC50) was found to be 640 nM. Also, at human CDK9/cycK, the IC50 came out at 200 nM. On human CDK7/cycH/MAT1, 13 nM corresponded to half-maximal inhibition (IC50), the “Ratio CDK2/CDK7” value came out at 49, the “CDK2/CDK7 Selectivity: Improvement vs. REF-001” value (“CDK2/CDK7 Selectivity” for short) is reported as 2.54 fold and the “CDK7 Potency: Improvement vs. REF-001” value was 2.62 fold. For the same compound, in data set [1], the “Free Fraction: Improvement vs. REF-001” value was 2.14 fold; the “Human PPB” value is on record as 85%; the fraction unbound at 240 min, 5 µM was 0.15. For the same compound, at BCRP, the efflux ratio at 2 h, 10 µM came to 5.

For `O[C@H]1CNCC[C@@H]1CNc1cc(NCc2ccccc2)n2ncc(C3CC3)c2n1` [APPAMP-002, (3R,4R)-4-(((7-(benzylamino)-3-cyclopropylpyrazolo[1,5-a]pyrimidin-5-yl)amino)methyl)piperidin-3-ol], on MDR1, the efflux ratio at 2 h, 10 µM worked out at 5.7. Also, half-maximal inhibition against human CDK2/cycE1 (IC50) required 770 nM. For the same compound, the IC50 against human CDK9/cycK turned out to be 210 nM. Also, at human CDK7/cycH/MAT1, the IC50 worked out at 33 nM, the “Ratio CDK2/CDK7” value was 23, the “CDK2/CDK7 Selectivity” value turned out to be 1.20 fold and the “CDK7 Potency: Improvement vs. REF-001” value was 1.03 fold. Further, in data set [1], the “Free Fraction: Improvement vs. REF-001” value is on record as 2.43 fold; the “Human PPB” value came to 83%; the unbound share (fraction unbound) at 240 min, 5 µM was 0.17. Moreover, the efflux ratio at 2 h, 10 µM on BCRP worked out at 2.

`CCc1cnn2c(NCc3cccc(C#N)c3)cc(NC[C@H]3CCNC[C@@H]3O)nc12` [APPAMP-003, 3-(((3-ethyl-5-((((3R,4R)-3-hydroxypiperidin-4-yl)methyl)amino)pyrazolo[1,5-a]pyrimidin-7-yl)amino)methyl)benzonitrile] gave a concentration for half-maximal inhibition (IC50) against human CDK2/cycE1 of 190 nM. Besides, the IC50 at human CDK9/cycK is 22 nM. Further, at human CDK7/cycH/MAT1, the IC50 came to 8.9 nM, the “Ratio CDK2/CDK7” value worked out at 21, the “CDK2/CDK7 Selectivity” value is listed as 1.10 fold and the “CDK7 Potency: Improvement vs. REF-001” value turned out to be 3.82 fold.

The compound `CCc1cnn2c(NCc3cccc(C#N)c3)c(Cl)c(NC[C@H]3CCNC[C@@H]3O)nc12` [APPAMP-004, 3-(((6-chloro-3-ethyl-5-((((3R,4R)-3-hydroxypiperidin-4-yl)methyl)amino)pyrazolo[1,5-a]pyrimidin-7-yl)amino)methyl)benzonitrile] registered a half-inhibitory concentration (IC50) against human CDK2/cycE1 of 2400 nM. It took 130 nM to reach half-maximal inhibition against human CDK9/cycK (IC50). Further, at human CDK7/cycH/MAT1, half-maximal inhibition (IC50) was put at 4.2 nM, the “Ratio CDK2/CDK7” value was determined as 571, the “CDK2/CDK7 Selectivity” value is 29.4 fold and the “CDK7 Potency: Improvement vs. REF-001” value was 8.10 fold.

For the compound `CC(C)c1cnn2c(NCc3ccccc3)cc(NC[C@H]3CCNC[C@@H]3O)nc12` [REF-001, (3R,4R)-4-(((7-(benzylamino)-3-isopropylpyrazolo[1,5-a]pyrimidin-5-yl)amino)methyl)piperidin-3-ol, reference compound], in data set [2], the “effect of the combination with an anti-estrogen on growth of breast cancer cells” value is recorded as “synergistic effects”. Besides, in data set [1], the “Human PPB” value stood at 93% and the free fraction (fraction unbound) at 240 min, 5 µM was 0.07.
